Legend:
Vibrio cholerae = assay: IC25 growth inhibition; higher = less potent
How it was run: (§1)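 Overnight monocultures grown in mGAM were moved into pre-reduced plates containing twofold drug dilutions, at a starting OD578 of 0.01 with 1% DMSO (or water). Plates were kept anaerobic and read hourly at OD578 in a plate reader, with at least three biological replicates. For each concentration, the median area under the growth curve was made monotonic, and IC25 was the lowest concentration whose median fell below a cutoff, reported as a tested interval. That cutoff was 0.75.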

Streptococcus salivarius = assay: IC25 growth inhibition; higher = less potent
How it was run: as §1

[1] = test system: Salmonella enterica typhimurium; assay: IC25 growth inhibition; higher = less potent
How it was run: as §1

[2] = test system: Yersinia enterocolitica WA-314; assay: IC25 growth inhibition; higher = less potent
How it was run: as §1

Parabacteroides merdae = assay: IC25 growth inhibition; higher = less potent
How it was run: as §1

Ruminococcus gnavus = assay: IC25 growth inhibition; higher = less potent
How it was run: as §1

Shigella flexneri = assay: IC25 growth inhibition; higher = less potent
How it was run: as §1

Roseburia intestinalis = assay: IC25 growth inhibition; higher = less potent
How it was run: as §1

Bacteroides fragilis NT = assay: IC25 growth inhibition; higher = less potent
How it was run: as §1

[3] = test system: Fusobacterium nucleatum subsp. Nucleatum; assay: IC25 growth inhibition; higher = less potent
How it was run: as §1

[4] = test system: Bacteroides thetaiotaomicron; assay: IC25 growth inhibition; higher = less potent
How it was run: as §1

[5] = test system: Streptococcus parasanguinis; assay: IC25 growth inhibition; higher = less potent
How it was run: as §1

[6] = test system: Yersinia pseudotuberculosis; assay: IC25 growth inhibition; higher = less potent
How it was run: as §1

Escherichia coli ED1a = assay: IC25 growth inhibition; higher = less potent
How it was run: as §1

Dorea formicigenerans = assay: IC25 growth inhibition; higher = less potent
How it was run: as §1

Eubacterium rectale = assay: IC25 growth inhibition; higher = less potent
How it was run: as §1

Collinsella aerofaciens = assay: IC25 growth inhibition; higher = less potent
How it was run: as §1

Bacteroides uniformis = assay: IC25 growth inhibition; higher = less potent
How it was run: as §1

Bacteroides vulgatus = assay: IC25 growth inhibition; higher = less potent
How it was run: as §1

Coprococcus comes = assay: IC25 growth inhibition; higher = less potent
How it was run: as §1

[7] = test system: Clostridium saccharolyticum; assay: IC25 growth inhibition; higher = less potent
How it was run: as §1

Clostridium bolteae = assay: IC25 growth inhibition; higher = less potent
How it was run: as §1

Clostridium ramosum = assay: IC25 growth inhibition; higher = less potent
How it was run: as §1

Clostridium perfringens = assay: IC25 growth inhibition; higher = less potent
How it was run: as §1

[8] = test system: Com21 synthetic gut community; assay: community biomass OD578 after 24 h drug treatment relative to untreated (fraction of untreated control); higher = more community growth; conditions: community: Com21 (Com20 + E. coli ED1a)
Procedure: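 Com21 (Com20 plus E. coli ED1a) was treated with drug for 24 h under anaerobic conditions in mGAM. Community OD578 was then measured and normalised to untreated Com21; mean of 3 biological replicates.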

[9] = drug pretreatment concentration 10 µM
[10] = drug pretreatment concentration 20 µM
[11] = drug pretreatment concentration 40 µM
[12] = drug pretreatment concentration 80 µM
[13] = drug pretreatment concentration 160 µM
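Throughout, for IC25 growth inhibition: lowest concentration where monotonic median growth AUC falls below 0.75 of drug-free control.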

SMILES	IC25 growth inhibition (Vibrio cholerae) [µM]	IC25 growth inhibition (Streptococcus salivarius) [µM]	IC25 growth inhibition [1] [µM]	IC25 growth inhibition [2] [µM]	IC25 growth inhibition (Parabacteroides merdae) [µM]	IC25 growth inhibition (Ruminococcus gnavus) [µM]	IC25 growth inhibition (Shigella flexneri) [µM]	IC25 growth inhibition (Roseburia intestinalis) [µM]	IC25 growth inhibition (Bacteroides fragilis NT) [µM]	IC25 growth inhibition [3] [µM]	IC25 growth inhibition [4] [µM]	IC25 growth inhibition [5] [µM]	IC25 growth inhibition [6] [µM]	IC25 growth inhibition (Escherichia coli ED1a) [µM]	IC25 growth inhibition (Dorea formicigenerans) [µM]	IC25 growth inhibition (Eubacterium rectale) [µM]	IC25 growth inhibition (Collinsella aerofaciens) [µM]	IC25 growth inhibition (Bacteroides uniformis) [µM]	IC25 growth inhibition (Bacteroides vulgatus) [µM]	IC25 growth inhibition (Coprococcus comes) [µM]	IC25 growth inhibition [7] [µM]	IC25 growth inhibition (Clostridium bolteae) [µM]	IC25 growth inhibition (Clostridium ramosum) [µM]	IC25 growth inhibition (Clostridium perfringens) [µM]	community biomass OD578 [8, 9]	community biomass OD578 [8, 10]	community biomass OD578 [8, 11]	community biomass OD578 [8, 12]	community biomass OD578 [8, 13]
CCOC(=O)C1=C(COCCN)NC(C)=C(C(=O)OC)C1c1ccccc1Cl (stereo not drawn) [Amlodipine]	> 80	≤ 40	> 80	> 80	≤ 80	≤ 80	> 80	≤ 40	≤ 80	≤ 80	≤ 80	> 80	> 80	> 80	≤ 40	≤ 80	≤ 80	≤ 80	≤ 40	> 80	–	–	–	–	–	–	–	–	–
O=C1CCc2ccc(OCCCCN3CCN(c4cccc(Cl)c4Cl)CC3)cc2N1 [Aripiprazole]	> 160	> 80	> 80	> 160	> 160	> 160	> 160	> 160	> 160	> 160	> 160	> 80	> 40	> 160	> 160	> 160	> 160	> 160	> 160	> 160	> 160	> 160	> 160	> 160	–	–	–	–	–
CC[C@H](C)[C@H]1O[C@]2(C=C[C@@H]1C)C[C@@H]1C[C@@H](C/C=C(\C)[C@@H](O[C@H]3C[C@H](OC)[C@@H](O[C@H]4C[C@H](OC)[C@@H](O)[C@H](C)O4)[C@H](C)O3)[C@@H](C)/C=C/C=C3\CO[C@@H]4[C@H](O)C(C)=C[C@@H](C(=O)O1)[C@]34O)O2.CO[C@H]1C[C@H](O[C@H]2[C@H](C)O[C@@H](O[C@@H]3/C(C)=C/C[C@@H]4C[C@@H](C[C@]5(C=C[C@H](C)[C@@H](C(C)C)O5)O4)OC(=O)[C@@H]4C=C(C)[C@@H](O)[C@H]5OC/C(=C\C=C\[C@@H]3C)[C@]54O)C[C@@H]2OC)O[C@@H](C)[C@@H]1O [Avermectin B1]	> 20	≤ 10	> 80	> 10	≤ 10	≤ 10	> 20	≤ 2.5	≤ 10	> 40	≤ 20	≤ 20	> 10	> 160	≤ 5	≤ 10	≤ 10	≤ 20	≤ 10	≤ 20	≤ 80	≤ 40	≤ 40	≤ 10	–	–	–	–	–
CC[C@H]1OC(=O)[C@H](C)[C@@H](O[C@H]2C[C@@](C)(OC)[C@@H](O)[C@H](C)O2)[C@H](C)[C@@H](O[C@@H]2O[C@H](C)C[C@H](N(C)C)[C@H]2O)[C@](C)(OC)C[C@@H](C)C(=O)[C@H](C)[C@@H](O)[C@]1(C)O [Clarithromycin]	< 1.25	< 1.25	≤ 40	≤ 5	< 1.25	< 1.25	≤ 10	< 1.25	< 1.25	≤ 5	< 1.25	< 1.25	> 160	≤ 40	< 1.25	< 1.25	< 1.25	< 1.25	< 1.25	< 1.25	< 1.25	< 1.25	< 1.25	< 1.25	–	–	–	–	–
CCC[C@@H]1C[C@@H](C(=O)N[C@@H]([C@H]2O[C@H](SC)[C@H](O)[C@@H](O)[C@H]2O)[C@H](C)Cl)N(C)C1 [Clindamycin]	–	–	–	–	–	–	–	–	–	–	–	–	–	–	–	–	–	–	–	–	–	–	–	–	0.263	0.273	0.238	0.158	0.062
CCN(CC)CCOc1ccc(C(=C(Cl)c2ccccc2)c2ccccc2)cc1 [Clomifen]	≤ 80	≤ 40	> 160	> 80	≤ 40	≤ 10	> 80	≤ 20	≤ 40	≤ 80	≤ 40	≤ 80	> 40	> 160	≤ 10	≤ 40	≤ 20	≤ 40	≤ 40	≤ 40	≤ 40	≤ 80	≤ 40	≤ 40	–	–	–	–	–
CCN(CC)CCOc1ccc(C(=C(Cl)c2ccccc2)c2ccccc2)cc1 [Clomiphene]	–	–	–	–	–	–	–	–	–	–	–	–	–	–	–	–	–	–	–	–	–	–	–	–	0.947	0.955	0.845	0.398	0.335
CCOC(=O)C1=C(C)NC(C)=C(C(=O)OC)C1c1cccc(Cl)c1Cl (stereo not drawn) [Felodipine]	> 80	≤ 10	> 20	> 20	≤ 40	≤ 40	> 80	≤ 10	≤ 20	> 40	≤ 40	≤ 40	> 80	> 40	≤ 20	≤ 20	≤ 40	≤ 20	≤ 20	> 40	–	–	–	–	–	–	–	–	–
CNCCC(Oc1ccc(C(F)(F)F)cc1)c1ccccc1 (stereo not drawn) [Fluoxetine]	≤ 160	≤ 80	> 160	≤ 160	≤ 80	≤ 80	> 160	≤ 80	≤ 160	≤ 80	≤ 160	> 160	≤ 160	> 160	≤ 40	≤ 40	≤ 160	≤ 80	≤ 80	≤ 160	≤ 160	> 160	> 160	≤ 160	–	–	–	–	–
CN(C)C(=O)C(CCN1CCC(O)(c2ccc(Cl)cc2)CC1)(c1ccccc1)c1ccccc1 [Loperamide]	> 80	> 80	> 80	> 80	≤ 80	≤ 80	> 80	≤ 40	≤ 80	> 80	≤ 80	> 80	> 80	> 160	≤ 80	≤ 40	≤ 80	≤ 80	≤ 80	> 80	> 80	> 80	> 80	> 80	–	–	–	–	–
Cc1c(N(C)CS(=O)(=O)O)c(=O)n(-c2ccccc2)n1C [Metamizol]	> 160	> 160	> 160	> 160	> 160	> 160	> 160	> 160	> 160	> 160	> 160	> 160	> 160	> 160	> 160	> 160	> 160	> 160	> 160	> 160	> 160	> 160	> 160	> 160	–	–	–	–	–
Cc1c(N(C)CS(=O)(=O)O)c(=O)n(-c2ccccc2)n1C [Metamizole]	–	–	–	–	–	–	–	–	–	–	–	–	–	–	–	–	–	–	–	–	–	–	–	–	1	0.981	1.01	1	0.994
Cc1ncc([N+](=O)[O-])n1CCO [Metronidazol]	≤ 160	> 160	–	> 160	< 1.25	< 1.25	> 160	< 1.25	< 1.25	< 1.25	< 1.25	≤ 160	≤ 160	> 160	< 1.25	< 1.25	< 1.25	< 1.25	< 1.25	< 1.25	< 1.25	< 1.25	< 1.25	< 1.25	–	–	–	–	–
CC(C)(O)c1ccccc1CC[C@@H](SCC1(CC(=O)O)CC1)c1cccc(/C=C/c2ccc3ccc(Cl)cc3n2)c1 [Montelukast]	> 20	≤ 5	> 10	> 10	> 80	> 80	> 20	≤ 10	> 40	> 80	> 80	≤ 10	> 20	> 160	> 80	≤ 10	> 20	> 80	> 80	> 80	> 10	> 40	> 10	≤ 5	–	–	–	–	–
CCn1cc(C(=O)O)c(=O)c2ccc(C)nc21 [Nalidixic Acid]	< 1.25	> 160	≤ 5	> 160	≤ 80	> 160	≤ 2.5	> 160	≤ 160	≤ 160	≤ 160	> 160	≤ 2.5	≤ 5	> 160	> 160	> 160	≤ 160	> 160	> 160	> 160	> 160	≤ 160	≤ 20	–	–	–	–	–
CCn1cc(C(=O)O)c(=O)c2cc(F)c(N3CCNCC3)cc21 [Norfloxacin]	< 1.25	≤ 10	< 1.25	≤ 10	≤ 40	≤ 10	< 1.25	≤ 160	≤ 80	≤ 20	≤ 80	≤ 20	≤ 10	< 1.25	≤ 10	≤ 40	≤ 10	≤ 20	≤ 80	≤ 20	≤ 40	≤ 20	≤ 160	≤ 2.5	–	–	–	–	–
CO[C@@H]1[C@@H](OC(N)=O)[C@@H](O)[C@H](Oc2ccc3c(O)c(NC(=O)c4ccc(O)c(CC=C(C)C)c4)c(=O)oc3c2C)OC1(C)C [Novobiocin]	< 1.25	< 1.25	≤ 40	≤ 20	< 1.25	< 1.25	≤ 2.5	< 1.25	≤ 20	≤ 5	≤ 20	< 1.25	≤ 20	≤ 5	< 1.25	≤ 5	< 1.25	< 1.25	< 1.25	< 1.25	≤ 10	< 1.25	≤ 5	≤ 5	–	–	–	–	–
N=C(N)c1ccc(OCCCCCOc2ccc(C(=N)N)cc2)cc1 [Pentamidine Isothionate]	> 160	≤ 10	–	> 80	≤ 5	≤ 2.5	≤ 160	≤ 5	≤ 80	≤ 10	≤ 20	≤ 10	≤ 160	> 160	< 1.25	≤ 5	≤ 10	≤ 20	≤ 20	< 1.25	≤ 10	> 160	≤ 40	≤ 2.5	–	–	–	–	–
CN[C@H]1CC[C@@H](c2ccc(Cl)c(Cl)c2)c2ccccc21 [Sertraline]	≤ 80	≤ 80	> 160	≤ 80	≤ 80	≤ 40	≤ 160	≤ 40	≤ 160	≤ 160	≤ 80	≤ 160	≤ 160	≤ 160	≤ 80	≤ 10	≤ 80	≤ 160	> 160	≤ 160	≤ 80	≤ 160	≤ 80	≤ 80	–	–	–	–	–
O=C(O)Cc1cc(I)c(Oc2ccc(O)c(I)c2)c(I)c1 [Tiratricol]	≤ 80	≤ 10	> 160	> 160	≤ 40	≤ 20	> 160	≤ 40	≤ 80	≤ 40	≤ 80	≤ 20	> 160	> 160	≤ 80	≤ 160	≤ 80	≤ 80	≤ 40	≤ 20	≤ 20	≤ 80	≤ 20	≤ 20	–	–	–	–	–

From the supplement of paper PMC12350171
